Laboratory results taken from patent US9302999B2, “Substituted triazoles as herbicides” (E. I. DU PONT DE NEMOURS AND COMPANY, priority 2012, dated 2016).

What was measured:
[1] = test system: beggarticks (hairy beggarticks, Bidens pilosa); assay: Test F pre-/postemergence: beggarticks; format: in vivo; conditions: Preemergence
Method in brief: (§1)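 Preemergence treatment of seeds sown in silt loam soil, and postemergence treatment of plants 2–18 cm tall (1- to 4-leaf stage), with compounds in non-phytotoxic solvent plus surfactant. Greenhouse 14–21 days, then visual rating versus controls on 0–100 scale (100 = complete control).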

[2] = test system: poinsettia, wild (wild poinsettia, Euphorbia heterophylla); assay: Test F pre-/postemergence: poinsettia, wild; format: in vivo; conditions: Preemergence
Method in brief: as §1

[3] = test system: Waterhemp; assay: Test C preemergence: waterhemp; format: in vivo, Amaranthus rudis; conditions: 125 g ai/ha, scale 0 to 100, 0 no effect, 100 complete control
[4] = test system: ryegrass, Italian (Italian ryegrass, Lolium multiflorum); assay: Test F pre-/postemergence: ryegrass, Italian; format: in vivo; conditions: Preemergence
Method in brief: as §1

[5] = test system: pigweed, palmer (palmer pigweed, Amaranthus palmeri); assay: Test F pre-/postemergence: pigweed, palmer; format: in vivo; conditions: Preemergence
Method in brief: as §1

[6] = test system: barnyardgrass (Echinochloa crus-galli); assay: Test F pre-/postemergence: barnyardgrass; format: in vivo; conditions: Preemergence
Method in brief: as §1

[7] = test system: speedwell (bird's-eye speedwell, Veronica persica); assay: Test D pre-/postemergence: speedwell; format: in vivo; conditions: Preemergence
Method in brief: (§2)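 Species were sown in silt loam and sprayed preemergence, or grown in peat/vermiculite medium and sprayed postemergence at the 1- to 4-leaf stage (2–18 cm), with compounds in a surfactant-containing solvent. Injury was visually rated against untreated controls after 14–21 days, on a 0 (no effect) to 100 (complete control) scale.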

[8] = test system: ryegrass, Italian (Italian ryegrass, Lolium multiflorum); assay: Test D pre-/postemergence: ryegrass, Italian; format: in vivo
Method in brief: as §2

[9] = test system: barley, spring (spring barley, Hordeum vulgare); assay: Test D pre-/postemergence: barley, spring; format: in vivo
Method in brief: as §2

[10] = 16 g ai/ha, scale 0 to 100, 0 no effect, 100 complete control
[11] = 31 g ai/ha, scale 0 to 100, 0 no effect, 100 complete control
[12] = Postemergence, 31 g ai/ha, scale 0 to 100 (0 no effect, 100 complete control)
[13] = Postemergence, 62 g ai/ha, scale 0 to 100 (0 no effect, 100 complete control)
[14] = Postemergence, 125 g ai/ha, scale 0 to 100, 0 no effect, 100 complete control
[15] = Postemergence, 16 g ai/ha, scale 0 to 100
[16] = Preemergence, 16 g ai/ha, scale 0 to 100, 0 no effect, 100 complete control
[17] = Preemergence, 31 g ai/ha, scale 0 to 100, 0 no effect, 100 complete control
[18] = Preemergence, 62 g ai/ha, scale 0 to 100
[19] = Preemergence, 125 g ai/ha, scale 0 to 100

CCc1nn(-c2ccc(F)cc2)nc1Cc1ccnc(C(F)(F)F)c1 [Compound 154]
Plant response rating, Beggarticks [1, 10]: 0 | Plant response rating, Beggarticks [1, 11]: 0 | Plant response rating, Beggarticks ([1]; 62 g ai/ha, scale 0 to 100): 0 | Plant response rating, Beggarticks ([1]; 125 g ai/ha, scale 0 to 100): 0 | Plant response rating, Beggarticks ([1]; 250 g ai/ha, scale 0 to 100): 15 | Plant response rating, Poinsettia, Wild [2, 10]: 0 | Plant response rating, Poinsettia, Wild [2, 11]: 0 | Plant response rating, Poinsettia, Wild ([2]; 125 g ai/ha, scale 0 to 100): 25 | Plant response rating, Poinsettia, Wild ([2]; 250 g ai/ha, scale 0 to 100): 85 | Plant response rating, Waterhemp [3]: 100 | Plant response rating, Ryegrass, Italian [4, 10]: 0 | Plant response rating, Ryegrass, Italian [4, 11]: 0 | Plant response rating, Ryegrass, Italian ([4]; 125 g ai/ha, scale 0 to 100): 70 | Plant response rating, Ryegrass, Italian ([4]; 250 g ai/ha, scale 0 to 100): 100 | Plant response rating, Pigweed, Palmer [5, 10]: 100 | Plant response rating, Pigweed, Palmer [5, 11]: 100 | Plant response rating, Pigweed, Palmer ([5]; 125 g ai/ha, scale 0 to 100): 100 | Plant response rating, Pigweed, Palmer ([5]; 250 g ai/ha, scale 0 to 100): 100 | Plant response rating, Barnyardgrass [6, 10]: 0 | Plant response rating, Barnyardgrass [6, 11]: 5 | Plant response rating, Barnyardgrass ([6]; 62 g ai/ha, scale 0 to 100): 85 | Plant response rating, Barnyardgrass ([6]; 125 g ai/ha, scale 0 to 100): 90 | Plant response rating, Barnyardgrass ([6]; 250 g ai/ha, scale 0 to 100): 100

CCc1nn(-c2ccc(C(F)(F)F)cc2)nc1Cc1ccnc(C(F)(F)F)c1 [Compound 155]
Plant response rating, Speedwell [7, 10]: 100 | Plant response rating, Speedwell [7, 11]: 100 | Plant response rating, Speedwell ([7]; 62 g ai/ha, scale 0 to 100): 100 | Plant response rating, Speedwell ([7]; 125 g ai/ha, scale 0 to 100): 100 | Plant response rating, Beggarticks ([1]; 62 g ai/ha, scale 0 to 100): 40 | Plant response rating, Beggarticks ([1]; 125 g ai/ha, scale 0 to 100): 70 | Plant response rating, Beggarticks ([1]; 250 g ai/ha, scale 0 to 100): 80 | Plant response rating: Ryegrass, Italian [8, 12]: 15 | Plant response rating: Ryegrass, Italian [8, 13]: 25 | Plant response rating: Ryegrass, Italian [8, 14]: 60 | Plant response rating, Ryegrass, Italian [8, 15]: 5 | Plant response rating, Ryegrass, Italian [8, 16]: 0 | Plant response rating, Ryegrass, Italian [8, 17]: 0 | Plant response rating, Ryegrass, Italian [8, 18]: 10 | Plant response rating, Ryegrass, Italian [8, 19]: 65 | Plant response rating, Poinsettia, Wild ([2]; 125 g ai/ha, scale 0 to 100): 80 | Plant response rating, Poinsettia, Wild ([2]; 250 g ai/ha, scale 0 to 100): 100 | Plant response rating: Barley, Spring [9, 12]: 15 | Plant response rating: Barley, Spring [9, 13]: 25 | Plant response rating: Barley, Spring [9, 14]: 35 | Plant response rating, Barley, Spring [9, 15]: 10 | Plant response rating, Barley, Spring [9, 16]: 0 | Plant response rating, Barley, Spring [9, 17]: 5 | Plant response rating, Barley, Spring [9, 18]: 5 | Plant response rating, Barley, Spring [9, 19]: 10 | Plant response rating, Waterhemp [3]: 100 | Plant response rating, Ryegrass, Italian ([4]; 125 g ai/ha, scale 0 to 100): 85 | Plant response rating, Ryegrass, Italian ([4]; 250 g ai/ha, scale 0 to 100): 95 | Plant response rating, Pigweed, Palmer ([5]; 125 g ai/ha, scale 0 to 100): 100 | Plant response rating, Pigweed, Palmer ([5]; 250 g ai/ha, scale 0 to 100): 100 | Plant response rating, Barnyardgrass ([6]; 62 g ai/ha, scale 0 to 100): 30 | Plant response rating, Barnyardgrass ([6]; 125 g ai/ha, scale 0 to 100): 30 | Plant response rating, Barnyardgrass ([6]; 250 g ai/ha, scale 0 to 100): 100
